From PubChem BioAssay AID1259411 (Chemical Carcinogenesis Research Information System (CCRIS), 2018)
Calls of active or inactive are those of the source. The rule behind the calls is not given here.

Tested on: rodent carcinogenicity bioassays, tumor incidence
Assay: CCRIS carcinogenicity studies
In short: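 Archive of carcinogenicity, mutagenicity, tumor promotion and tumor inhibition results drawn from journals, NCI reports and other sources, expert-reviewed; covers 1985-2011 and is no longer updated.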

O=C1c2ccccc2C(=O)c2c(O)cccc21
carcinogen call (Species: RAT, Strain/Sex: ACI/N/MALE, Route: ORAL, Dose: 0, 1% IN BASAL DIET FOR DURATION OF STUDY (STUDY DURATION: 480 D), Tumor Site: Type of Lesion: CECUM: ADENOMA, ADENOCARCINOMA, COLON: ADENOMA, ADENOCARCINOMA, LIVER: TUMOR, STOMACH: TUMOR, Tumor Site: Type of Lesion: CECUM: ADENOMA, ADENOCARCINOMA, COLON: ADENOMA, ADENOCARCINOMA, LIVER: TUMOR, STOMACH: TUMOR): active; positive

CN(C)CCN(Cc1ccsc1)c1ccccn1
carcinogen call (Species: RAT, Strain/Sex: SPRAGUE-DAWLEY/FEMALE, Route: ORAL, Dose: 0, 500, 1000 PPM IN DRINKING WATER 5D/WK FOR LIFE (STUDY DURATION: 572-731 D), Dose: 0, 500, 1000 PPM IN DRINKING WATER 5D/WK FOR LIFE (STUDY DURATION: 572-731 D)): inactive; negative | carcinogen call (Species: RAT, Strain/Sex: SPRAGUE-DAWLEY/MALE, Route: ORAL, Dose: 0, 500, 1000 PPM IN DRINKING WATER 5D/WK FOR LIFE (STUDY DURATION: 515-576 D), Dose: 0, 500, 1000 PPM IN DRINKING WATER 5D/WK FOR LIFE (STUDY DURATION: 515-576 D)): inactive; negative

CCOC(=O)Nc1cccc(OC(=O)Nc2ccccc2)c1
carcinogen call (Species: Mouse, Strain/Sex: NMRI/Female (50/Group), Route: Oral, Dose: 0, 30, 150, 750 ppm in diet for 104 wk, Dose: 0, 30, 150, 750 ppm in diet for 104 wk): inactive; negative | carcinogen call (Species: Mouse, Strain/Sex: NMRI/Male (50/Group), Route: Oral, Dose: 0, 30, 150, 750 ppm in diet for 104 wk, Dose: 0, 30, 150, 750 ppm in diet for 104 wk): inactive; negative | carcinogen call (Species: Rat, Strain/Sex: Wistar KFM-Han/Female (50/Group), Route: Oral, Dose: 0, 60, 300, 1500 ppm in diet for 2 yr, Dose: 0, 60, 300, 1500 ppm in diet for 2 yr): inactive; negative | carcinogen call (Species: Rat, Strain/Sex: Wistar KFM-Han/Male (50/Group), Route: Oral, Dose: 0, 60, 300, 1500 ppm in diet for 2 yr, Dose: 0, 60, 300, 1500 ppm in diet for 2 yr): inactive; negative

O=C(O)C1=NN(c2ccc(S(=O)(=O)O)cc2)C(=O)C1N=Nc1ccc(S(=O)(=O)O)cc1 (stereo not drawn)
carcinogen call (Species: MOUSE, Strain/Sex: ICR/FEMALE, Route: DERMAL, Dose: 0, 1 MG IN 0.1 ML DISTILLED WATER 2/WK FOR A MEAN TOTAL DOSE OF 133.4 MG (STUDY DURATION: 18 MO)): inactive; negative | carcinogen call (Species: MOUSE, Strain/Sex: ICR/MALE, Route: DERMAL, Dose: 0, 1 MG IN 0.1 ML DISTILLED WATER 2/WK FOR A MEAN TOTAL DOSE OF 133.4 MG (STUDY DURATION: 18 MO)): inactive; negative | carcinogen call (Species: RAT, Strain/Sex: F344/FEMALE, Route: ORAL, Dose: 0, 1, 2% IN DRINKING WATER FOR 104 WK (STUDY DURATION: 112 WK), Dose: 0, 1, 2% IN DRINKING WATER FOR 104 WK (STUDY DURATION: 112 WK)): inactive; negative | carcinogen call (Species: RAT, Strain/Sex: F344/MALE, Route: ORAL, Dose: 0, 1, 2% IN DRINKING WATER FOR 104 WK (STUDY DURATION: 112 WK), Dose: 0, 1, 2% IN DRINKING WATER FOR 104 WK (STUDY DURATION: 112 WK)): inactive; negative

Oc1ccc(-c2c(Cl)cc(Cl)cc2Cl)cc1
carcinogen call (Species: MOUSE, Strain/Sex: BALB/CCRGL/FEMALE, Route: SUBCUTANEOUS, Dose: 20 UG DAILY FOR 5 D BEGINNING 16 HR AFTER BIRTH (STUDY DURATION: 20 MO), Tumor Site: Type of Lesion: MAMMARY GLAND: CARCINOMA (5/33), CERVICOVAGINAL TRACT: CARCINOMA (2/33), LUNG TUMORS (3/33), Tumor Site: Type of Lesion: MAMMARY GLAND: CARCINOMA (5/33), CERVICOVAGINAL TRACT: CARCINOMA (2/33), LUNG TUMORS (3/33)): active; positive; (statistically significant for total number of tumors) | carcinogen call (Species: MOUSE, Strain/Sex: BALB/CCRGL/FEMALE, Route: SUBCUTANEOUS, Dose: 200 UG DAILY FOR 5 D BEGINNING 16 HR AFTER BIRTH (STUDY DURATION: 20 MO), Tumor Site: Type of Lesion: CERVICOVAGINAL TRACT: CARCINOMA (10/22)): active; positive
